Test results from BigSolDB 2.1.

N[C@H](Cc1c[nH]cn1)C(=O)O
solubility (mole fraction)
Details | 293.15 K | 298.15 K | 303.15 K | 308.15 K | 313.15 K | 318.15 K | 323.15 K | 328.15 K | 333.15 K
in 1,4-dioxane | 0.0072 | 0.00864 | 0.0102 | 0.0117 | 0.0135 | 0.0152 | 0.0179 | 0.0206 | 0.0245
in DMF | 0.154 | 0.176 | 0.201 | 0.228 | 0.258 | 0.29 | 0.326 | 0.365 | 0.417
in DMSO | 0.0171 | 0.0199 | 0.0232 | 0.0267 | 0.0308 | 0.0353 | 0.0403 | 0.0459 | 0.0543
in NMP | 0.0656 | 0.0752 | 0.0859 | 0.0977 | 0.111 | 0.127 | 0.14 | 0.157 | 0.178
in cyclohexane | 0.000445 | 0.000565 | 0.000714 | 0.000897 | 0.00111 | 0.00138 | 0.00169 | 0.00216 | 0.00252
in ethanol | 0.000253 | 0.000329 | 0.000433 | 0.000557 | 0.000724 | 0.000915 | 0.0012 | 0.00145 | 0.00181
in ethylene glycol | 0.00215 | 0.00263 | 0.0032 | 0.00385 | 0.00459 | 0.00559 | 0.00654 | 0.00774 | 0.00944
in isobutanol | 0.000546 | 0.000681 | 0.00085 | 0.00105 | 0.00129 | 0.00156 | 0.00201 | 0.0024 | 0.00286
in isopropanol | 0.000369 | 0.00047 | 0.000598 | 0.000759 | 0.000945 | 0.00117 | 0.00146 | 0.00177 | 0.00228
in methanol | 0.00019 | 0.000252 | 0.00033 | 0.000431 | 0.000562 | 0.000712 | 0.000904 | 0.00119 | 0.00156
in n-butanol | 0.0007 | 0.000865 | 0.00105 | 0.00128 | 0.00155 | 0.00187 | 0.00224 | 0.00263 | 0.0033
in n-propanol | 0.000484 | 0.00061 | 0.00076 | 0.000941 | 0.00115 | 0.00142 | 0.00172 | 0.00208 | 0.00263
in water | 0.00458 | 0.00506 | 0.00556 | 0.00619 | 0.00686 | 0.00765 | 0.00878 | 0.00971 | 0.0118
